Reference: patent US20260224566A1, “Obicetrapib and Ezetimibe Combination Treatment and Fixed Dose Pharmaceutical Compositions” (NewAmsterdam Pharma B.V., priority 2023, published 2026)

How the values were obtained:
[1] = test system: participants currently receiving high-intensity statin therapy; assay: ROSE2 Phase 2b clinical trial: LDL-C and other lipid efficacy endpoints; assay type: in vivo, human; conditions: ROSE2; ezetimibe 10 mg on top of obicetrapib 10 mg
Protocol: The primary objective of this study is to evaluate the effect of obicetrapib 10 mg+ezetimibe 10 mg combination therapy compared with placebo, when used as an adjunct to high-intensity statin therapy, on LDL-C at Day 84.
The secondary objectives of this study include the following, in hierarchical order: • To evaluate the effect of obicetrapib 10 mg monotherapy compared with placebo, when used as an adjunct to high-intensity statin therapy, on LDL-C at Day 84; • To evaluate the effect of obicetrapib 10 mg+ezetimibe 10 mg combination therapy compared with placebo, when used as an adjunct to high-intensity statin therapy, on ApoB at Day 84; and • To evaluate the effect of obicetrapib 10 mg monotherapy compared with placebo, when used as an adjunct to high-intensity statin therapy, on ApoB at Day 84.
This study will be a placebo-controlled, double-blind, randomized, Phase 2 study to evaluate the efficacy, safety, and tolerability of obicetrapib 10 mg, both in combination with ezetimibe 10 mg and as monotherapy, as an adjunct to high-intensity statin therapy. This study will take place at approximately 20 sites in the United States.
Up to 2 weeks after the Screening Visit, participants will return to the site on Day 1 (Visit 2) and confirm study eligibility before being randomized and beginning treatment. Approximately 114 eligible participants (38 participants per treatment group) will be randomized in a 1:1:1 ratio to 1 of the following treatment groups: • Combination therapy: Obicetrapib 10 mg+ezetimibe 10 mg (administered as one 10 mg obicetrapib tablet and one 10 mg ezetimibe capsule); • Obicetrapib monotherapy: Obicetrapib 10 mg (administered as one 10 mg obicetrapib tablet and 1 placebo capsule); or. • Placebo (administered as 1 placebo tablet and 1 placebo capsule).
During the 12-week Treatment Period, the assigned study drugs will be administered by the participants orally with water, once daily on Day 1 to Day 84 at approximately the same time each morning. Participants will return to the site on Day 28 (±2 days), Day 84 (±2 days), and Day 112 (±2 days) for efficacy, safety, and pharmacokinetic (PK) assessments. Participants, Investigators, the Clinical Research Organization (CRO), and the Sponsor will be blinded to all lipid results from Day 1 (Visit 2) for the first participant until all enrolled participants complete the Day 84 (End of Treatment) visit or are withdrawn from the study, in order to protect blinding to treatment assignment.
The primary efficacy endpoint is the percent change from Day 1 to Day 84 in LDL-C for the obicetrapib 10 mg+ezetimibe 10 mg combination treatment group compared with the placebo group.
The secondary efficacy endpoints include the following, in hierarchical order: • Percent change from Day 1 to Day 84 in LDL-C for the obicetrapib 10 mg monotherapy. • treatment group compared with the placebo group; • Percent change from Day 1 to Day 84 in ApoB for the obicetrapib 10 mg+ezetimibe 10 mg • combination treatment group compared with the placebo group; and • Percent change from Day 1 to Day 84 in ApoB for the obicetrapib 10 mg monotherapy treatment group compared with the placebo group.
The exploratory efficacy endpoints include the following: • Percent change from Day 1 to Day 84 in non-HDL-C, VLDL-C, HDL-C, TG, ApoE, Lp(a), and HDL-ApoE for the obicetrapib 10 mg+ezetimibe 10 mg combination treatment group compared with the placebo group and for the obicetrapib 10 mg monotherapy treatment group compared with the placebo group; and • Proportion of participants at Day 84 that achieve LDL-C <2.6 mmol/L (<100 mg/dL), LDL-C <1.8 mmol/L (<70 mg/dL), and LDL-C <1.3 mmol/L (<50 mg/dL) for the obicetrapib 10 mg+ezetimibe 10 mg combination treatment group compared with the placebo group and for the obicetrapib 10 mg monotherapy treatment group compared with the placebo group. […]

[2] = cited from earlier work
[3] = test system: patients with hypercholesterolemia; conditions: cited from earlier work
[4] = test system: ApoE*3-Leiden.CETP transgenic mice; assay: Example 12: plasma lipids, VLDL clearance, LDL receptor, fecal and biliary sterols in ApoE*3-Leiden.CETP mice; assay type: in vivo, mouse
Text: Obicetrapib is a selective cholesteryl ester transfer protein (CETP) inhibitor currently in clinical development for the treatment of hypercholesterolemia and reduction of cardiovascular risk that strongly reduces Apolipoprotein B (ApoB) and low-density lipoprotein cholesterol (LDL-C) and concomitantly increases plasma high-density lipoprotein cholesterol (HDL-C). Ezetimibe reduces absorption of biliary and dietary cholesterol from the small intestine, thereby reducing LDL-C levels. The current study was carried out to elucidate the mechanism of action responsible for the observed decrease in non-HDL-C by obicetrapib monotherapy and in combination with ezetimibe in a translational mouse model for hyperlipidemia and atherosclerosis.
The experimental protocol is illustrated in FIG. 71, with time (t) measured in weeks. Female ApoE*3-Leiden.CETP transgenic mice were fed a Western diet with 0.05% w/w cholesterol (equivalent to daily human intake) with (i) no drug (control), or the same diet containing (ii) obicetrapib alone (2 mg/kg/day), (iii) ezetimibe alone (1 mg/kg/day) or (iv) the combination of obicetrapib and ezetimibe. In the experiment, the effects of the treatments on, amongst other things, plasma blood lipids and fecal bile acids and sterols were determined.

[5] = test system: ApoE*3-Leiden.CETP transgenic mice; assay: Example 13: plasma cholesterol and atherosclerosis development in aortic root of ApoE*3-Leiden.CETP mice; assay type: in vivo, mouse
Protocol: The current study was carried out to evaluate the effect of obicetrapib monotherapy and a combination of obicetrapib+ezetimibe on atherosclerosis development in a translational mouse model for hyperlipidemia and atherosclerosis.
The experimental protocol is illustrated in FIG. 82, with time (t) measured in weeks. Female ApoE*3-Leiden.CETP transgenic mice were fed a Western diet with 0.05% w/w cholesterol (equivalent to daily human intake) with (i) no drug (control), or the same diet containing (ii) obicetrapib alone (2 mg/kg/day), (iii) ezetimibe alone (on average 0.6 mg/kg/day) or (iv) the combination of obicetrapib and ezetimibe.

[6] = obicetrapib 2 mg/kg/day, ezetimibe 1 mg/kg/day in Western diet
[7] = obicetrapib 2 mg/kg/day, ezetimibe on average 0.6 mg/kg/day in Western diet

SMILES: O=C1[C@H](CC[C@H](O)c2ccc(F)cc2)[C@@H](c2ccc(O)cc2)N1c1ccc(F)cc1 [ezetimibe, (3R,4S)-1-(4-fluorophenyl)-3-[(3S)-3-(4-fluorophenyl)-3-hydroxypropyl]-4-(4-hydroxyphenyl)azetidin-2-one]
- additional/incremental (median) reduction of LDL-C of ezetimibe added on top of obicetrapib [1]: about 32%
- solubility in water [2]: practically insoluble
- incremental reduction in LDL-C levels in combination with statins ([3]; Catapano et al. 2016): 15-20%
- LDL-C reduction typical with ezetimibe mono-therapy ([3]; hyperlipidemic patients, Catapano et al. 2016): 15-22%
- greater reduction in LDL-C, statin and ezetimibe in combination compared with statin alone ([3]; meta-analysis of 27 studies, more than 21,000 patients): 15.1%
- biliary bile acids and biliary bile acid flow ([4]; not shown): did not affect
- biliary cholesterol flow ([4]; not shown): no significant effects
- biliary cholesterol levels ([4]; not shown): decreased
- biliary phospholipids and biliary phospholipid flow ([4]; not shown): did not affect
- fecal neutral sterol excretion, change [4, 6]: +68%
- half-life of VLDL-like particles, change [4, 6]: −23%
- non-HDL-C levels, change [4, 6]: −24%
- total plasma cholesterol levels, change [4, 6]: −23%
- HDL-cholesterol ([5]; FIG. 84B): no increase
- severe lesions (types IV-V), change ([5]; aortic root, 28 weeks of treatment): −31%
- total atherosclerotic lesion size, change ([5]; aortic root, 28 weeks of treatment, versus control): −50%
- non-HDL-C levels, change [5, 7]: −19%
- total plasma cholesterol levels, change [5, 7]: −19%
- lesion number ([5]; versus control animals, FIG. 90B): no reduction
